Molecular target: receptor for advanced glycation end products (RAGE) (Homo sapiens, UniProt Q15109)
Test: SPR
Format: binding

Chain of receptor for advanced glycation end products (RAGE) (Q15109 23-342 limits assumed): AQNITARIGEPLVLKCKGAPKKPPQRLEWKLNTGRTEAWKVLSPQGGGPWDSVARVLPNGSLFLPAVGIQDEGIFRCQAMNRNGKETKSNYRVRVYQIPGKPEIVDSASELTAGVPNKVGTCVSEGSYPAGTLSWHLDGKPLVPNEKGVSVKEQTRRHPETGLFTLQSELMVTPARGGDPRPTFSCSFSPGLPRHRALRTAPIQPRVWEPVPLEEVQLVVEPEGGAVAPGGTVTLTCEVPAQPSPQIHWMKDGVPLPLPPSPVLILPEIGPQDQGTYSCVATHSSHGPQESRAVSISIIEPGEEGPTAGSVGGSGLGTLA

- Kd: 84.9 nM
Structure (SMILES): CCCCCCCC/C=C\CCCCCCCC(=O)OC[C@@H](O)COP(=O)(O)O [LPA, 1-oleoyl-2-hydroxy-sn-glycero-3-phosphate]

Source: PMC3526353 (The Journal of Experimental Medicine, 2012)
